US10040802B2, “Thienopyrazine inhibitors of IRAK4 activity” (MERCK SHARP & DOHME CORP., priority 2015, dated 2018)
Counter-ions that a name gives are not always drawn.

Target: GST tagged IRAK4 (Homo sapiens (Human), UniProt Q9NWZ3)
Assay: IRAK4 Kinase Assay (IMAP fluorescence polarization)
Format: biochemical
Details: 0.5 nM GST tagged IRAK4, 100 μM ATP, 30 minutes at 25° C.
Procedure, shortened: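 GST-tagged IRAK4 (0.5 nM) phosphorylates 100 nM fluorescent peptide with 100 μM ATP in 10 mM Tris pH 7.2, 1 mM MgCl2, 1 mM DTT, 0.01% Tween 20 for 30 min at 25 °C. Phosphorylation read as IMAP nanoparticle-binding fluorescence polarization after stop reagent.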

Sequence of GST tagged IRAK4 (Q9NWZ3 whole entry): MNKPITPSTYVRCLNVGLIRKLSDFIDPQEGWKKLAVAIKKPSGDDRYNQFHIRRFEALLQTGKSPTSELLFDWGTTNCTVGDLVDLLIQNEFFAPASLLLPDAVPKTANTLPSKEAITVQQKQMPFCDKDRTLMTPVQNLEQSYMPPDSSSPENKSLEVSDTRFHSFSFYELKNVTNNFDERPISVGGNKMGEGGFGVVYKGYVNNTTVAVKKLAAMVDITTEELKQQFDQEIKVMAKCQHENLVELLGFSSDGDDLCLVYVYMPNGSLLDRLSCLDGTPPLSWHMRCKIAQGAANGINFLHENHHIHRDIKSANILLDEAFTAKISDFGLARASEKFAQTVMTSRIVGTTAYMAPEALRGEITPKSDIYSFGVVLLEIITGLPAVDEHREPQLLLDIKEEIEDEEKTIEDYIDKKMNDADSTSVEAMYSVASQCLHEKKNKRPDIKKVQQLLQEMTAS

Structure (SMILES)	IC50
N#Cc1ccccc1NC(=O)c1csc2ncc(N[C@@H]3CCCC[C@@H]3N)nc12 [Example 95, 2-{[(1R,2S)-2-aminocyclohexyl]-amino}-N-(2-cyanophenyl)-thieno[2,3-b]-pyrazine-7-carboxamide trifluoroacetate]	0.0005 µM
O=C(Nc1ccccc1Br)c1csc2ncc(N3C[C@@H]4CC[C@H]3CN4)nc12 (single isomer, unassigned) [Example 88, N-(2-bromophenyl)-2-[(1S,4S)- or (1R,4R)-2,5-diazabicyclo-[2.2.2]oct-2-yl]thieno[2,3-b]-pyrazine-7-carboxamide trifluoroacetate]	2.87 µM
O=C(Nc1ccccc1C(F)F)c1csc2ncc(N3CCCNCC3)nc12 [Example 103, 2-(1,4-diazepan-1-yl)-N-[2-(difluoromethyl)phenyl]thieno[2,3-b]pyrazine-7-carboxamide trifluoroacetate]	3.63 µM
Cn1cc(NC(=O)c2csc3ncc(N[C@@H]4CCCC(F)(F)[C@@H]4N)nc23)c(C(F)F)n1 [Example 39, 2-{[(1R,2R)-2-amino-3,3-difluorocyclohexyl]amino}-N-[3-(difluoromethyl)-1-methyl-1H-pyrazol-4-yl]thieno[2,3-b] pyrazine-7-carboxamide]	0.032 µM

Next, values leading:

IC50	Structure (SMILES)
0.003 µM	Cn1cc(NC(=O)c2csc3ncc(N4CCNCC4)nc23)c(C(F)F)n1 [Example 12, N-[3-(difluoromethyl)-1-methyl-1H-pyrazol-4-yl]-2-piperazin-1-ylthieno[2,3-b] pyrazine-7-carboxamide trifluoroacetate]
0.015 µM	Cn1cc(NC(=O)c2csc3ncc(N4C[C@H]5CC[C@@H]4CN5)nc23)c(Cl)n1 (single isomer, unassigned) [Example 17, N-(3-chloro-1-methyl-1H-pyrazol-4-yl)-2-[(1S,4S)- or (1R,4R)-2,5-diazabicyclo[2.2.2]oct-2-yl]thieno[2,3-b] pyrazine-7-carboxamide trifluoroacetate]
1.56 µM	O=C(Nc1ccccc1Cl)c1csc2ncc(N3C[C@@H]4CC[C@H]3CN4)nc12 (single isomer, unassigned) [Example 99, N-(2-chlorophenyl)-2-[(1S,4S)- or (1R,4R)-2,5-diazabicyclo-[2.2.2]oct-2-yl]thieno[2,3-b]-pyrazine-7-carboxamide trifluoroacetate]
